Test results reported in patent US20150030583A1, “Methods of Treating Serosal Cancer” (SLOAN KETTERING INSTITUTE FOR CANCER RESEARCH, priority 2011, published 2015).

system: Ovcar3-GTL catenae; assay: Ovcar3-GTL catena drug sensitivity / proliferation screen (alamarBlue, 384-well); settings: 24 h, read-out: IC50 (μM) Addition on Day 1, Ovcar3-GTL catenae; compound added one day after seeding (cells predominantly lacking a glycocalyx)
Experimental: Cells were resuspended in M5-FCS to produce homogenous cultures of single cells which were seeded in 50 μL aliquots per well at the indicated cell densities and grown for the indicated times before addition of test compounds or other reagents.
For these experiments, 25 Ovcar3-GTL catena or 250 Ovcar3-GTL catena cells were seeded per well as described above. […] Five days after adding the test compound, alamarBlue® was added to the cultures and culture absorbance was measured 48 hours later.
The assays were conducted on catena cells with or without a glycocalyx coat and the IC50 values were determined.
Each compound was tested against three cellular entities (catena cells with or without the coat and established tumor spheroids) at 5 μM, 0.2 μM and 0.008 μM of compounds (with replicates).

SMILES	IC50 [µM]
O=c1cc(N2CCOCC2)oc2c(-c3ccccc3)cccc12 [LY294002]	25
CC(=O)c1c(C)c2cnc(Nc3ccc(N4CCNCC4)cn3)nc2n(C2CCCC2)c1=O [PD-0332991]	0.6
C[C@@H](Oc1cc(-c2cnn(C3CCNCC3)c2)cnc1N)c1c(Cl)ccc(F)c1Cl [PF-02341066, Crizotinib]	0.8
C[C@@H](N)[C@H]1CC[C@H](C(=O)Nc2ccncc2)CC1 [Y27632]	> 100
CC(C)C[C@H](NC(=O)[C@H](Cc1ccccc1)NC(=O)c1cnccn1)B(O)O [bortezomib]	0.013

same assay, conditions: 144 h, read-out: IC50 (μM) Addition on Day 6, Ovcar3-GTL catenae; compound added six days after seeding (established or substantial glycocalyx)

SMILES	IC50 [µM]
O=c1cc(N2CCOCC2)oc2c(-c3ccccc3)cccc12 [LY294002]	> 100
CC(=O)c1c(C)c2cnc(Nc3ccc(N4CCNCC4)cn3)nc2n(C2CCCC2)c1=O [PD-0332991]	50
C[C@@H](Oc1cc(-c2cnn(C3CCNCC3)c2)cnc1N)c1c(Cl)ccc(F)c1Cl [PF-02341066, Crizotinib]	25
C[C@@H](N)[C@H]1CC[C@H](C(=O)Nc2ccncc2)CC1 [Y27632]	> 100
CC(C)C[C@H](NC(=O)[C@H](Cc1ccccc1)NC(=O)c1cnccn1)B(O)O [bortezomib]	0.013

same assay, conditions: LOPAC 1280 HTS; compound at 0.2 μM

SMILES	toxicity to catena cells with a glycocalyx coat
C[C@H]1CCC/C=C/[C@@H]2C[C@H](O)C[C@H]2[C@H](O)/C=C/C(=O)O1 [brefeldin A]	exert toxicity
COc1cc2c(c(OC)c1OC)-c1ccc(OC)c(=O)cc1[C@@H](NC(C)=O)CC2 [colchicine]	exert toxicity

same assay, conditions: increased resistance of catena cells with glycocalyx coat versus no coat

SMILES	Fold resistance [fold]
Cc1ccc(C(=O)Nc2ccc(CN3CCN(C)CC3)c(C(F)(F)F)c2)cc1C#Cc1cnc2cccnn12 [AP24534 (Ponatinib), Ponatinib]	16
CN(C)C/C=C/C(=O)Nc1cc2c(Nc3ccc(F)c(Cl)c3)ncnc2cc1O[C@H]1CCOC1 [BIBW2992 (Tovok)]	4
CN1CCN(c2ccc3nc(-c4c(N)c5c(F)cccc5[nH]c4=O)[nH]c3c2)CC1 [CHIR-258 (Dovitinib), Dovitinib]	4
CS(=O)(=O)N1CCN(Cc2cc3nc(-c4cccc5[nH]ncc45)nc(N4CCOCC4)c3s2)CC1 [GDC-0941]	>8
Cn1cc(-c2ccc3nnc(C(F)(F)c4ccc5ncccc5c4)n3n2)cn1 [JNJ-38877605]	>8
O=C(/C=C/c1ccc(CN(CCO)CCc2c[nH]c3ccccc23)cc1)NO [LAQ824 (NVP-LAQ824, Dacinostat), Dacinostat]	16
Cc1[nH]c2ccccc2c1CCNCc1ccc(/C=C/C(=O)NO)cc1 [LBH-589 (Panobinostat), Panobinostat]	4
COCCNCc1ccc(-c2cc3nccc(Oc4ccc(NC(=S)NC(=O)Cc5ccc(F)cc5)cc4F)c3s2)nc1 [MGCD-265]	>8
NC1(c2ccc(-c3nc4ccn5c(=O)[nH]nc5c4cc3-c3ccccc3)cc2)CCC1 [MK-2206]	4
CCNC(=O)c1noc(-c2cc(C(C)C)c(O)cc2O)c1-c1ccc(CN2CCOCC2)cc1 [NVP-AUY922]	24
NCC(=O)Nc1ccc(-n2nc(C(F)(F)F)cc2-c2ccc3c(ccc4ccccc43)c2)cc1 [OSU-03012]	4
C[C@@H](Oc1cc(-c2cnn(C3CCNCC3)c2)cnc1N)c1c(Cl)ccc(F)c1Cl [PF-02341066, Crizotinib]	16
Cc1[nH]c(/C=C2\C(=O)Nc3ccc(S(=O)(=O)Cc4c(Cl)cccc4Cl)cc32)c(C)c1C(=O)N1CCC[C@@H]1CN1CCCC1 [PHA-665752]	1
Oc1cccc(-c2nc(N3CCOCC3)c3oc4ncccc4c3n2)c1 [PI-103]	16
CCCCCCCCCCCCCCCCCCOP(=O)([O-])OC1CC[N+](C)(C)CC1 [Perifosine]	4
Cn1cc(-c2ccc3nnc(Sc4ccc5ncccc5c4)n3n2)cn1 [SGX-523]	>8
Cc1[nH]c(/C=C2\C(=O)Nc3ccc(S(=O)(=O)N(C)c4cccc(Cl)c4)cc32)c(C)c1C(=O)N1CCN(C)CC1 [SU11274 (PKI-SU11274)]	>8
CCN(CC)CCNC(=O)c1c(C)[nH]c(/C=C2\C(=O)Nc3ccc(F)cc32)c1C [Sunitinib Malate (Sutent), Sunitinib Malate]	4
FC(F)c1nc2ccccc2n1-c1nc(N2CCOCC2)nc(N2CCOCC2)n1 [ZSTK474]	>8

same assay, conditions: ratio of IC50 day 6 to day 1, Ovcar3-GTL catenae

SMILES	Increase in Resistance Day6/Day 1 [fold]
O=c1cc(N2CCOCC2)oc2c(-c3ccccc3)cccc12 [LY294002]	4
CC(=O)c1c(C)c2cnc(Nc3ccc(N4CCNCC4)cn3)nc2n(C2CCCC2)c1=O [PD-0332991]	83
C[C@@H](Oc1cc(-c2cnn(C3CCNCC3)c2)cnc1N)c1c(Cl)ccc(F)c1Cl [PF-02341066, Crizotinib]	31

same assay, conditions: read-out: IC50 (μM) No coat

SMILES	IC50 [µM]
Cc1ccc(C(=O)Nc2ccc(CN3CCN(C)CC3)c(C(F)(F)F)c2)cc1C#Cc1cnc2cccnn12 [AP24534 (Ponatinib), Ponatinib]	0.78
Oc1cccc(-c2nc(N3CCOCC3)c3oc4ncccc4c3n2)c1 [PI-103]	0.78

same assay, conditions: read-out: IC50 (μM) No coat, pathway-specific inhibitors; catena cells without glycocalyx coat

SMILES	IC50 [µM]
CN(C)C/C=C/C(=O)Nc1cc2c(Nc3ccc(F)c(Cl)c3)ncnc2cc1O[C@H]1CCOC1 [BIBW2992 (Tovok)]	3.14
CN1CCN(c2ccc3nc(-c4c(N)c5c(F)cccc5[nH]c4=O)[nH]c3c2)CC1 [CHIR-258 (Dovitinib), Dovitinib]	3.14
CS(=O)(=O)N1CCN(Cc2cc3nc(-c4cccc5[nH]ncc45)nc(N4CCOCC4)c3s2)CC1 [GDC-0941]	3.14
Cn1cc(-c2ccc3nnc(C(F)(F)c4ccc5ncccc5c4)n3n2)cn1 [JNJ-38877605]	3.14
O=C(/C=C/c1ccc(CN(CCO)CCc2c[nH]c3ccccc23)cc1)NO [LAQ824 (NVP-LAQ824, Dacinostat), Dacinostat]	0.01
Cc1[nH]c2ccccc2c1CCNCc1ccc(/C=C/C(=O)NO)cc1 [LBH-589 (Panobinostat), Panobinostat]	0.01
COCCNCc1ccc(-c2cc3nccc(Oc4ccc(NC(=S)NC(=O)Cc5ccc(F)cc5)cc4F)c3s2)nc1 [MGCD-265]	3.14
NC1(c2ccc(-c3nc4ccn5c(=O)[nH]nc5c4cc3-c3ccccc3)cc2)CCC1 [MK-2206]	3.14
NCC(=O)Nc1ccc(-n2nc(C(F)(F)F)cc2-c2ccc3c(ccc4ccccc43)c2)cc1 [OSU-03012]	3.14
CC(=O)c1c(C)c2cnc(Nc3ccc(N4CCNCC4)cn3)nc2n(C2CCCC2)c1=O [PD-0332991]	13.4
C[C@@H](Oc1cc(-c2cnn(C3CCNCC3)c2)cnc1N)c1c(Cl)ccc(F)c1Cl [PF-02341066, Crizotinib]	0.78
Cc1[nH]c(/C=C2\C(=O)Nc3ccc(S(=O)(=O)Cc4c(Cl)cccc4Cl)cc32)c(C)c1C(=O)N1CCC[C@@H]1CN1CCCC1 [PHA-665752]	3.14
CCCCCCCCCCCCCCCCCCOP(=O)([O-])OC1CC[N+](C)(C)CC1 [Perifosine]	3.14
Cn1cc(-c2ccc3nnc(Sc4ccc5ncccc5c4)n3n2)cn1 [SGX-523]	3.14
Cc1[nH]c(/C=C2\C(=O)Nc3ccc(S(=O)(=O)N(C)c4cccc(Cl)c4)cc32)c(C)c1C(=O)N1CCN(C)CC1 [SU11274 (PKI-SU11274)]	3.14
CCN(CC)CCNC(=O)c1c(C)[nH]c(/C=C2\C(=O)Nc3ccc(F)cc32)c1C [Sunitinib Malate (Sutent), Sunitinib Malate]	3.14
C[C@@H](N)[C@H]1CC[C@H](C(=O)Nc2ccncc2)CC1 [Y27632]	> 25
FC(F)c1nc2ccccc2n1-c1nc(N2CCOCC2)nc(N2CCOCC2)n1 [ZSTK474]	3.14

same assay, conditions: read-out: IC50 (μM) With coat

SMILES	IC50 [µM]
Cc1ccc(C(=O)Nc2ccc(CN3CCN(C)CC3)c(C(F)(F)F)c2)cc1C#Cc1cnc2cccnn12 [AP24534 (Ponatinib), Ponatinib]	13.4
Oc1cccc(-c2nc(N3CCOCC3)c3oc4ncccc4c3n2)c1 [PI-103]	13.4

same assay, conditions: read-out: IC50 (μM) With coat, pathway-specific inhibitors; catena cells with glycocalyx coat

SMILES	IC50 [µM]
CN(C)C/C=C/C(=O)Nc1cc2c(Nc3ccc(F)c(Cl)c3)ncnc2cc1O[C@H]1CCOC1 [BIBW2992 (Tovok)]	13.4
CN1CCN(c2ccc3nc(-c4c(N)c5c(F)cccc5[nH]c4=O)[nH]c3c2)CC1 [CHIR-258 (Dovitinib), Dovitinib]	13.4
CS(=O)(=O)N1CCN(Cc2cc3nc(-c4cccc5[nH]ncc45)nc(N4CCOCC4)c3s2)CC1 [GDC-0941]	> 25
O=C(/C=C/c1ccc(CN(CCO)CCc2c[nH]c3ccccc23)cc1)NO [LAQ824 (NVP-LAQ824, Dacinostat), Dacinostat]	< 0.2
COCCNCc1ccc(-c2cc3nccc(Oc4ccc(NC(=S)NC(=O)Cc5ccc(F)cc5)cc4F)c3s2)nc1 [MGCD-265]	> 25
NC1(c2ccc(-c3nc4ccn5c(=O)[nH]nc5c4cc3-c3ccccc3)cc2)CCC1 [MK-2206]	13.4
NCC(=O)Nc1ccc(-n2nc(C(F)(F)F)cc2-c2ccc3c(ccc4ccccc43)c2)cc1 [OSU-03012]	13.4
CC(=O)c1c(C)c2cnc(Nc3ccc(N4CCNCC4)cn3)nc2n(C2CCCC2)c1=O [PD-0332991]	13.4
C[C@@H](Oc1cc(-c2cnn(C3CCNCC3)c2)cnc1N)c1c(Cl)ccc(F)c1Cl [PF-02341066, Crizotinib]	13.4
Cc1[nH]c(/C=C2\C(=O)Nc3ccc(S(=O)(=O)Cc4c(Cl)cccc4Cl)cc32)c(C)c1C(=O)N1CCC[C@@H]1CN1CCCC1 [PHA-665752]	3.14
CCCCCCCCCCCCCCCCCCOP(=O)([O-])OC1CC[N+](C)(C)CC1 [Perifosine]	13.4
Cn1cc(-c2ccc3nnc(Sc4ccc5ncccc5c4)n3n2)cn1 [SGX-523]	> 25
Cc1[nH]c(/C=C2\C(=O)Nc3ccc(S(=O)(=O)N(C)c4cccc(Cl)c4)cc32)c(C)c1C(=O)N1CCN(C)CC1 [SU11274 (PKI-SU11274)]	> 25
CCN(CC)CCNC(=O)c1c(C)[nH]c(/C=C2\C(=O)Nc3ccc(F)cc32)c1C [Sunitinib Malate (Sutent), Sunitinib Malate]	13.4
C[C@@H](N)[C@H]1CC[C@H](C(=O)Nc2ccncc2)CC1 [Y27632]	> 25
FC(F)c1nc2ccccc2n1-c1nc(N2CCOCC2)nc(N2CCOCC2)n1 [ZSTK474]	> 25

same assay, conditions: read-out: IC50 (μM) With coat; pathway-specific inhibitors; catena cells with glycocalyx coat

SMILES	IC50 [µM]
Cn1cc(-c2ccc3nnc(C(F)(F)c4ccc5ncccc5c4)n3n2)cn1 [JNJ-38877605]	> 25
O=C(/C=C/c1ccc(CN(CCO)CCc2c[nH]c3ccccc23)cc1)NO [LAQ824 (NVP-LAQ824, Dacinostat), Dacinostat]	0.2
Cc1[nH]c2ccccc2c1CCNCc1ccc(/C=C/C(=O)NO)cc1 [LBH-589 (Panobinostat), Panobinostat]	0.05
